Laboratory results as given in PMC8579695, “The Stringent Response Inhibits 70S Ribosome Formation in Staphylococcus aureus by Impeding GTPase-Ribosome Interactions” (mBio, 2021).

Legend:
[1] = test system: HflX association to the 30S and 50S ribosomal subunits; test: In vitro ribosome association assay (sucrose gradient, α-His Western immunoblot), HflX; format: binding, Staphylococcus aureus; details: 40 μM nucleotide; compared to apo, GTP, or GMPPNP-bound states
Text: (§1) It is well characterized that rRNA transcription decreases during the stringent response ([39]). In addition, the GTPase activity of ribosome assembly cofactors is inhibited by (p)ppGpp, both of which contribute to a reduction in mature ribosomes within the cell ([27]). To examine mechanistically how (p)ppGpp-GTPase interactions affect the ability of RA-GTPases to associate with ribosomal subunits, we examined the association of each GTPase to either the 30S or 50S ribosomal subunit in the presence of GDP, GTP, ppGpp, and pppGpp, as well as GMPPNP, a nonhydrolyzable analogue of GTP. The production and isolation of immature subunits, which can comprise several different immature states, introduces a large degree of heterogeneity, and so here we, and others, use homogenous mature particles as a system to examine the binding event, rather than the role of GTPase activity in downstream maturation ([11], [12], [29], [40], [41]). His-tagged GTPases were preincubated with highly pure, salt-washed 70S S. aureus ribosomes in a low-magnesium buffer to encourage ribosomal subunit dissociation, and the amount of each GTPase associated with each of the subunits was quantified by Western immunoblotting with anti-His antibodies after sucrose gradient separation. […]
(§2) FIG 2 (p)ppGpp and GDP binding reduces RA-GTPase association to the ribosome. […] After subunit separation and precipitation, bound proteins were detected in the 30S fraction using HRP-conjugated α-His antibodies. […] Bound proteins were detected in the 50S fraction using HRP-conjugated α-His antibodies. […]
(§3) A 500 nM concentration of recombinant 6×His-tagged RA-GTPase was incubated at room temperature for 5 min with 200 nM S. aureus 70S ribosomes in dissociation buffer (20 mM Tris [pH 7.5], 120 mM NH4Cl, 1.5 mM MgCl2, 2 mM β-mercaptoethanol) in the apo form and in the presence of 40 μM GTP, GMPPNP, GDP, ppGpp, or pppGpp. […] Gradients were fractionated by upward displacement of 250-μl aliquots, which were analyzed for RNA content at an absorbance of 260 nm. […]

HflX = HflX (Staphylococcus aureus, UniProt Q2FYY9); test: DRaCALA binding of 32P-labeled nucleotides to 6×His-tagged HflX; details: for Bmax, HflX: mean ± SEM, Bmax values indicate the fraction bound
Experimental: (§4) The RA-GTPases RsgA, Era, RbgA, and HflX can bind to the guanosine nucleotides GTP, GDP, ppGpp, and pppGpp. Our previous work observed higher binding affinities for ppGpp over GTP, pointing toward a difference in binding between 5′ di- or triphosphate nucleotides ([27]). […] Furthermore, these previous experiments were performed using recombinant proteins fused to large MBP tags, which could impact binding affinity determination. To examine the nucleotide binding affinities of these RA-GTPases for GDP in comparison to ppGpp, pppGpp, and GTP, and in the absence of a large tag, we used a differential radial capillary action of ligand assay (DRaCALA) with recombinant RsgA, RbgA, Era, and HflX fused to a smaller 6× His tag (Fig. 1B; see also Fig. S2A to C in the supplemental material) ([36]). In each case, the affinities of 5′ diphosphate-containing GDP and ppGpp were similar in the low μM range and were 2- to 6-fold higher than the affinities of either GTP or pppGpp (Table 1).
(§5) Supplementary file : FIG S2 Examination of the binding of GDP, ppGpp, GTP, and pppGpp to RA-GTPases by DRaCALA. (A to C) Determination of binding affinities and Kd values for ^32P-labeled nucleotides to purified recombinant 6×His-tagged RsgA (A), Era (B), and HflX (C). Kd values were determined from the binding curves as previously described ([36]). (D to F) DRaCALA binding assay of recombinant RsgA (D), Era (E), and HflX (F) binding to ^32P-labeled GTP, ppGpp, and pppGpp in the presence or absence of 100 μM cold competitors (GTP, GDP, ppGpp, pppGpp, and ATP). All experiments were carried out in triplicate, with error bars representing standard deviations. Download FIG S2, TIF file, 0.9 MB.
(§6) The synthesis of (p)ppGpp and differential radial capillary action of ligand assay (DRaCALA) binding and competition assays were performed as described previously ([27]), using recombinant, 6×His-tagged protein at the concentrations specified in the figure legends.

Era = Era (Staphylococcus aureus, UniProt Q2FGF6); test: DRaCALA binding of 32P-labeled nucleotides to 6×His-tagged Era; details: for Bmax, Era: mean ± SEM, Bmax values indicate the fraction bound
Experimental: as §4, §5, §6

RsgA = RsgA (Staphylococcus aureus, UniProt P67682); test: DRaCALA binding of 32P-labeled nucleotides to 6×His-tagged RsgA; details: for Bmax, RsgA: mean ± SEM, Bmax values indicate the fraction bound
Experimental: as §4, §5, §6

RbgA = RbgA (Staphylococcus aureus, UniProt A0A0H2XK72); test: DRaCALA binding of 32P-labeled nucleotides to 6×His-tagged RbgA; details: for Bmax, RbgA: mean ± SEM, Bmax values indicate the fraction bound
Text: FIG 1 Nucleotide binding characteristics of RA-GTPases. (A) Schematic representation of the domain structure of Era, RsgA, RbgA, and HflX from S. aureus. The conserved GTPase domain (G domain) is colored in green, and accessory domains are shown. (B) Determination of binding affinities and Kd values for ^32P-labeled GTP, GDP, ppGpp, and pppGpp with purified recombinant 6×His-tagged RbgA using DRaCALA, as previously described ([36]). Each point is the mean average of at least three technical replicates, and error bars indicate standard deviations. (C) Binding assay (DRaCALA) of recombinant RbgA binding to ^32P-labeled GTP, ppGpp, and pppGpp in the presence of an excess of cold competitor (GTP, GDP, ppGpp, pppGpp, or ATP). All experiments were carried out in triplicate, with error bars representing standard deviations.
as §4, §6

[2] = target: Era association to the 30S ribosomal subunit (Staphylococcus aureus, UniProt Q2FGF6); test: In vitro ribosome association assay (sucrose gradient, α-His Western immunoblot), Era; format: binding; details: 40 μM nucleotide; compared to apo, GTP, or GMPPNP-bound states
Text: as §1, §2, §3

[3] = test system: RA-GTPases RsgA, RbgA, Era, and HflX; test: DRaCALA binding and competition assays across the four RA-GTPases; parameters: species or system Staphylococcus aureus; details: 100 μM cold competitor
Text: FIG 1 Nucleotide binding characteristics of RA-GTPases. (A) Schematic representation of the domain structure of Era, RsgA, RbgA, and HflX from S. aureus. The conserved GTPase domain (G domain) is colored in green, and accessory domains are shown. (B) Determination of binding affinities and Kd values for ^32P-labeled GTP, GDP, ppGpp, and pppGpp with purified recombinant 6×His-tagged RbgA using DRaCALA, as previously described ([36]). Each point is the mean average of at least three technical replicates, and error bars indicate standard deviations. (C) Binding assay (DRaCALA) of recombinant RbgA binding to ^32P-labeled GTP, ppGpp, and pppGpp in the presence of an excess of cold competitor (GTP, GDP, ppGpp, pppGpp, or ATP). All experiments were carried out in triplicate, with error bars representing standard deviations. […]
Supplementary file : FIG S2 Examination of the binding of GDP, ppGpp, GTP, and pppGpp to RA-GTPases by DRaCALA. […] Kd values were determined from the binding curves as previously described ([36]). […]
Structural data places (p)ppGpp within the GTP-binding site of the RA-GTPase RbgA ([6]), indicating a competitive mode of inhibition. […] Based on our measured affinities (Table 1), we speculate that both GDP and ppGpp will outcompete other nucleotides for occupancy of the binding site. […]

[4] = test system: HflX binding to 50S ribosomes; test: Stopped-flow fluorescence kinetics of HflX-Atto488 association to 50S subunits; parameters: species or system Staphylococcus aureus
Experimental: FIG 3 Stopped-flow kinetic parameters of RA-GTPase association to the ribosomal subunits. (A) Schematic representation of the experimental setup for stopped-flow analysis. Nucleotides (brown circles), 50S subunits (orange oval), and Atto488-labeled RA-GTPases (purple hexagon) are indicated. Arrows indicate the direction of syringe movement. Atto-488 was excited using a 470-nm LED, and fluorescence was detected through a 515-nm long-pass filter. (B and C) Fluorescent change upon mixing 0.2 μM RbgA-Atto488 (B) or HflX-Atto488 (C) with 0.2 μM 50S ribosomal subunits in the presence of 100 μM GTP, ppGpp, and pppGpp or in the apo state using the stopped-flow fluorescence apparatus. Fluorescently labeled protein was also mixed with buffer lacking 50S subunits as a mixing control. Fluorescence of the reaction was tracked using exponential sampling for 10 s, and each curve represents the mean average of at least five technical replicates. (D) kapp1 dependence on 50S concentration for HflX complexed with GTP (green), ppGpp (pink), and pppGpp (black). (E) Same as for panel D for the kapp2 dependence. (F and G) Sum and product analyses of apparent rates during HflX association to the 50S subunit. HflX-Atto488 (0.05 μM) was mixed with increasing titrations of 50S ribosomal subunits over the fluorescently labeled protein in the presence of 20 μM GTP or ppGpp. The resultant traces (see Fig. S4) were analyzed by nonlinear regression using two exponential terms. The sum (F) and product (G) of apparent rates (kapp1 [D] and kapp2 [E]) were plotted as a function of the total concentration of the 50S subunits and HflX protein to determine the microscopic constants k1, k-1, k2, and k-2 (Table 2) and the resulting dissociation constant (Kd) (see Materials and Methods). Error bars represent the standard deviations of the apparent rates of four or more individual traces (D and E) or the standard errors of the two-step analysis (F and G).
Next, we used a constant concentration of protein in the presence of 200-fold excess of each nucleotide and titrated it with increasing concentrations of ribosomal subunits (see Fig. S4). […]
For initial controls, 0.2 μM Atto-488-labeled proteins were rapidly mixed with 0.2 μM E. coli 50S ribosomal subunits (purified as described elsewhere) in TAKM7 buffer (25 mM Tris-HCl [pH 7.4], 70 mM ammonium acetate, 30 mM KCl, 7 mM MgCl2) using an SX20 stopped-flow apparatus (Applied Photophysics) in the presence or absence of GTP, ppGpp, and pppGpp. […] Atto-488 was excited using a 470-nm LED and fluorescence was detected through a 515-nm long-pass filter. Reactions were monitored for 10 s, with 1,000 total data points per reaction. Each condition was subject to at least five technical repeats, with curves representing the mean average fluorescence of the technical repeats. […]

RsgA, sequence (P67682 whole entry): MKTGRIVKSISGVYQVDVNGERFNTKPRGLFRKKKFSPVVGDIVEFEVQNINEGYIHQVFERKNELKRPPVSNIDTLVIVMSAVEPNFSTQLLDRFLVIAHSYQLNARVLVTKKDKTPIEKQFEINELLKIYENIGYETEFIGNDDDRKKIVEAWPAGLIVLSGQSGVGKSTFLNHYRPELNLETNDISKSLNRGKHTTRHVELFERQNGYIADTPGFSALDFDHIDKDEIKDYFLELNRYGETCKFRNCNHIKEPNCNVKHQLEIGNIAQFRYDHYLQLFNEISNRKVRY
HflX, sequence (Q2FYY9 entry or part of it): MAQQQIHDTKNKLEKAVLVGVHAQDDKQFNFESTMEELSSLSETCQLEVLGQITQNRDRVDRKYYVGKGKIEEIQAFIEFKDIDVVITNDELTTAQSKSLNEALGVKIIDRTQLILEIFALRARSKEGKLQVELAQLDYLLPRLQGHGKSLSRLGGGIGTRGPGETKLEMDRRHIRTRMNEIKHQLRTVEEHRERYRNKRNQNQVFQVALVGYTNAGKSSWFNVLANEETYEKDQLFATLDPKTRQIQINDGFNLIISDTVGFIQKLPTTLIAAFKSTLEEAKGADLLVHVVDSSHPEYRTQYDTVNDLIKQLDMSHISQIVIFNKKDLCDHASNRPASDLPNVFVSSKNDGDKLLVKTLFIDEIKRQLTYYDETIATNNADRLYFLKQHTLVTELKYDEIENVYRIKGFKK
Era, sequence (Q2FGF6 whole entry): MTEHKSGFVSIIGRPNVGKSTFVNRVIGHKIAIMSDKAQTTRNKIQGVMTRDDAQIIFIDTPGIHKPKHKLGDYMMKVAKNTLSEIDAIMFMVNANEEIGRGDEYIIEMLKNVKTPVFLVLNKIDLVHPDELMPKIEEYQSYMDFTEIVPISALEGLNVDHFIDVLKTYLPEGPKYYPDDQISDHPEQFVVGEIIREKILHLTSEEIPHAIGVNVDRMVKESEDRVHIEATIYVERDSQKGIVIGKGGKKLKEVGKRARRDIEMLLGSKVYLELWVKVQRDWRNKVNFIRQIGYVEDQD
RbgA, sequence (A0A0H2XK72 entry or part of it): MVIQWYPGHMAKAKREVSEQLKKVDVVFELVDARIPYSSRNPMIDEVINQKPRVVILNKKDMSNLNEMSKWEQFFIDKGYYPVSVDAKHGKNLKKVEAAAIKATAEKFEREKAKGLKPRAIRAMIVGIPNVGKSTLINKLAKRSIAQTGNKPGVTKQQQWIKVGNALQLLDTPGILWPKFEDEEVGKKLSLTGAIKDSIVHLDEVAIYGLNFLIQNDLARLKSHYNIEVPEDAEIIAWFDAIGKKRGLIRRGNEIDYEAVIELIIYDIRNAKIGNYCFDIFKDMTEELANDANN
Era association to the 30S ribosomal subunit, sequence (Q2FGF6 whole entry): as the sequence (Q2FGF6 whole entry) above

| Structure (SMILES) | reduction in ribosome binding of HflX [1] | Kd (HflX) | Bmax, HflX (HflX) | Kd (Era) | Bmax, Era (Era) | Kd (RsgA) | Bmax, RsgA (RsgA) | Kd (RbgA) | Bmax, RbgA (RbgA) | reduction in ribosome binding of Era [2] | competition of cold unlabeled nucleotide with 32P-labeled GTP, ppGpp, pppGpp [3] | kapp2 of HflX association to 50S ([4]; GTP: hyperbolic, plateau, ppGpp: independent of 50S concentration) | linear increase in kapp1 of HflX, GTP relative to ppGpp or pppGpp ([4]; dependence on 50S concentration) |
| --- | --- | --- | --- | --- | --- | --- | --- | --- | --- | --- | --- | --- | --- |
| Nc1nc2c(ncn2[C@@H]2O[C@H](COP(=O)(O)OP(=O)(O)O)[C@@H](O)[C@H]2O)c(=O)[nH]1 [GDP] | 2 fold | 4.9 ± 0.7 µM | 0.7 ± 0.0 | 4.9 ± 0.7 µM | 0.5 ± 0.0 | 1.8 ± 0.2 µM | 0.9 ± 0.0 | 6.1 ± 1.1 µM | 0.5 ± 0.0 | 2 fold | competing more effectively | – | – |
| Nc1nc2c(ncn2[C@@H]2O[C@H](COP(=O)(O)OP(=O)(O)OP(=O)(O)O)[C@@H](O)[C@H]2O)c(=O)[nH]1 [GTP] | – | – | 0.7 ± 0.3 | 11.5 ± 1.6 µM | 0.3 ± 0.0 | 3.6 ± 0.4 µM | 0.8 ± 0.0 | 18.5 ± 5.4 µM | 0.4 ± 0.0 | – | – | ~2 s⁻¹ | 2 fold |
